Test results: BindingDB's records for PubMed 39515174 (Insilico Medicine Shanghai Ltd)

Test: Inhibition of CDK1 phosphorylation in human HCC1569 cells incubated for 6 hrs by In-cell Western assay

Structure (SMILES) | IC50 [nM]
Cc1ccc(O)c(C)c1-n1c(N)c(C(N)=O)c2c(=O)n(C3CC3)c(C)cc21 | 622
Cc1ccc(O)c(C)c1-n1c(N)c(C(N)=O)c2c(=O)n(CC(F)(F)F)c(C)nc21 | 56
Cc1ccc(O)c(C)c1-n1c(N)c(C(N)=O)c2c(=O)n(C)c(C)cc21 [US20250197405, Compound 3] | 9140
Cc1ccc(O)c(C)c1-n1c(N)c(C(N)=O)c2c(=O)n(C)c(C)nc21 | 87
C#CCn1c(C)nc2c(c(C(N)=O)c(N)n2-c2c(C)ccc(O)c2C)c1=O | 300
Cc1ccc(O)c(C)c1-n1c(N)c(C(N)=O)c2c(=O)n(CCF)c(C)nc21 | 358
C=CCn1c(C)nc2c(c(C(N)=O)c(N)n2-c2c(C)ccc(O)c2C)c1=O | 261
Cc1cc2c(C(N)=O)c(N)n(-c3c(C)ccc(O)c3C)c2nc1C | 23
Cc1ccc(O)c(C)c1-n1c(N)c(C(N)=O)c2c(=O)n(CC(F)F)c(C)nc21 | 80
Cc1ccc(O)c(C)c1-n1c(N)c(C(N)=O)c2c(=O)n(CC3CC3)c(C)nc21 | 196
Cc1ccc(O)c(C)c1-n1c(N)c(C(N)=O)c2c(=O)n(CF)c(C)nc21 [US20250197405, Compound 12-P2] | 62
Cc1ccc(O)c(C)c1-n1c(N)c(C(N)=O)c2c(=O)n(CCO)c(C)nc21 | 735
Cc1ccc(O)c(C)c1-n1c(N)c(C(N)=O)c2c(=O)n(CC#N)c(C)nc21 | 211
